How the values were obtained:
[1] = Rat pharmacokinetics, oral dosing; format: in vivo, Sprague-Dawley rats; conditions: male, Sprague-Dawley, oral dosing at 3 mg/kg, plasma; for half-life: read-out: Rat T1/2
human GLP-1R receptor = molecular target: T1, human GLP-1R receptor (Homo sapiens, UniProt P43220); experiment: GLP-1R low expression cell assay (cAMP TR-FRET, CHO-K1_hGLP-1Rlow_clone10 cells); format: cell-based; conditions: for Emax: maximum activation relative to control GLP-1 peptide agonist
T1 construct: expressed in transfected cells
T1 sequence (P43220 24-463): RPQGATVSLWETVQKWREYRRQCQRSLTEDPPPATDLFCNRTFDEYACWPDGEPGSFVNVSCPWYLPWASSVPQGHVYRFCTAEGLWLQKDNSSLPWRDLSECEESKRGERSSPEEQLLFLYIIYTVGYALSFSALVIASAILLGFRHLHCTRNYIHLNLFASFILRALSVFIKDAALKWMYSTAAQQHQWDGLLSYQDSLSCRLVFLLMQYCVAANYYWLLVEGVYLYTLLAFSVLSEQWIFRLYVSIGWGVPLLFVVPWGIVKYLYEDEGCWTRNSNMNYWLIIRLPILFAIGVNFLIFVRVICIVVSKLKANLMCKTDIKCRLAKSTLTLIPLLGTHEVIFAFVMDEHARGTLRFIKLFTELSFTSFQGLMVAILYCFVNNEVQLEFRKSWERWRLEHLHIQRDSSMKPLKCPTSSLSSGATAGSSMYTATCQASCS
Procedure, shortened: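 Readout is cAMP TR-FRET after 30 min compound stimulation at 25 °C of a low-GLP-1R-expressing CHO-K1 clone (1,000 cells/well), with 10-point 3-fold serial dilutions. Percent activation versus a control GLP-1 peptide, from duplicates, was Hill-fitted to give EC50.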

| AUC [1] [ng·h/mL] | Cmax [1] [ng/mL] | half-life [1] [min] | bioavailability [1] [%] | Emax (human GLP-1R receptor) [%] | EC50 (human GLP-1R receptor; cAMP TR-FRET, 30 min at 25° C.) [nM] | SMILES |
| --- | --- | --- | --- | --- | --- | --- |
| < 500 | < 500 | ≥ 150 | < 25 | > 85 |  | COCCOc1cc(C(=O)O)cc2c1nc(CN1CCC(c3cccc4c3O[C@@](C)(c3ccc(Cl)cn3)O4)CC1)n2C [Compound 309, (S)-2-((4-(2-(5-Chloropyridin-2-yl)-2-methylbenzo[d][1,3]dioxol-4-yl)piperidin-1-yl)methyl)-4-(2-methoxyethoxy)-1-methyl-1H-benzo[d]imidazole-6-carboxylic acid] |
| < 500 | < 500 | ≥ 150 | 25 to 50 | > 85 | 10 to 100 | Cn1c(CN2CCC(c3cccc(OCc4ccc(Cl)cc4F)n3)CC2)nc2c(O)cc(C(=O)O)cc21 [Compound 307, 2-((4-(6-((4-Chloro-2-fluorobenzyl)oxy)pyridin-2-yl)piperidin-1-yl)methyl)-4-hydroxy-1-methyl-1H-benzo[d]imidazole-6-carboxylic acid] |

Source: US20240368120A1 (Terns Pharmaceuticals, Inc., priority 2023, published 2024)
